Data: patent publication US20250230477A1, “A PROCESS FOR THE PREPARATION OF TETRAHYDROANTHRACENES FROM STREPTOMYCES SPP. AND ANTICANCER ACTIVITY THEREOF” (Council of Scientific and Industrial Research, priority 2021, published 2025)

How the values were obtained:
Staphylococcus aureus = assay: MIC, microtiter broth dilution; format: cell-based; details: dilutions 2-500 μg/ml, overnight 37° C.
Protocol: (§1) The minimum inhibitory concentrations (MIC) of purified compound showing significant zones of inhibition in the preliminary antimicrobial assay using agar well diffusion method were evaluated. MIC assay was carried out by a microtiter broth dilution method with some modifications. Stock solution of each pathogen was prepared in normal saline solution i.e. 0.85% NaCl (w/v) at a concentration of 10^8 cells/ml and finally diluted with respective growth media to give approximately 10^5 CFU/ml for all organisms. Different dilutions of compound was prepared (2-500 μg/ml) by serial dilutions. 100 μl of each concentration (2-500 μg/ml) of the compound was loaded onto each well and was mixed with 100 μl of diluted pathogens containing 10^5 CFU/ml. […] The microtitre plates were then incubated overnight at 37° C. for bacterial pathogens and 28° C. for fungal pathogens and were analysed after incubation.

Bacillus subtilis = assay: MIC, microtiter broth dilution; format: cell-based; details: dilutions 2-500 μg/ml, overnight 37° C.
Protocol: as §1

Bacillus cereus = assay: MIC, microtiter broth dilution; format: cell-based; details: dilutions 2-500 μg/ml, overnight 37° C.
Protocol: as §1

Micrococcus luteus = assay: MIC, microtiter broth dilution; format: cell-based; details: dilutions 2-500 μg/ml, overnight 37° C.
Protocol: as §1

HT-29 [1] = assay: MTT cytotoxicity; format: cell-based; details: Homo sapiens; HT-29, MTT, 48 hours, 100 μM concentration range
Protocol: (§2) 5×10^3 cells were seeded/well in a 96 well plate and treated with Compounds (1-3) for 48 hours with 100 μM concentration range to a panel of cancer cell lines. After 44 hour MTT with final concentration of 0.5 mg/ml were added to cells and incubated for 4 hour at 37° C. until formazon crystals are formed. MTT was removed and formazon crystals were lysed by DMSO for 30 minutes at 37° C., the absorbance was measured at 570 nm and the IC50 values were calculated using graph pad prism.

PC3 = assay: MTT cytotoxicity; format: cell-based; details: Homo sapiens, PC-3, 48 hours, 100 μM concentration range
Protocol: as §2

MDA-MB-231 = assay: MTT cytotoxicity; format: cell-based; details: Homo sapiens; MDA-MB-231, MTT, 48 hours, 100 μM concentration range
Protocol: as §2

MCF-7 [2] = assay: MTT cytotoxicity; format: cell-based; details: Homo sapiens, MCF7; MCF-7, MTT, 48 hours, 100 μM concentration range
Protocol: as §2

Panc-1 = assay: MTT cytotoxicity; format: cell-based; details: Homo sapiens; Panc-1, MTT, 48 hours, 100 μM concentration range
Protocol: as §2

MTT cytotoxicity = format: cell-based; details: human, FR2 cells, 100 μM concentration range
Protocol: as §2

MiaPaca-2 [3] = assay: MTT cytotoxicity; format: cell-based; details: Homo sapiens, MIA PaCa-2; MiaPaca-2, MTT, 48 hours, 100 μM concentration range
Protocol: as §2

A549 = assay: MTT cytotoxicity; format: cell-based; details: Homo sapiens, 48 hours, 100 μM concentration range
Protocol: as §2

HCT-116 [4] = assay: MTT cytotoxicity; format: cell-based; details: Homo sapiens; HCT-116, MTT, 48 hours, 100 μM concentration range
Protocol: as §2

BCL-2 = assay: Western blotting; format: cell-based; details: HCT-116 and MCF-7 cells, 48 h
Protocol: (§3) FIG. 5 Illustrates effect of setomimycin (Compound-3) pro-proliferative and anti-apoptotic protein targets in cancer cells: (A-B) Immunoblot analysis of ERK, p-MEK, Par-4, BCL-2 and β-actin in HCT-116 and MCF-7 cells treated with setomimycin for 48 h. (C-D) Densitometry analysis showing relative protein expression for the western blots presented Strong active potential of setomimycin against tumor cell proliferation and migration at nearby concentration of IC50 values was depicted by MTT data. Further, molecular docking studies predicted the strong affinity of setomimycin targeting MEK pathway. ERK and MEK are the major signaling pathways regulating cancer cell proliferation, differentiation and apoptosis. Therefore, Western blotting was carried out to check the effects of Setomimycin on ERK and MEK proteins.

Par-4 = assay: Western blotting; format: cell-based; details: HCT-116 and MCF-7 cells, 48 h
Protocol: as §3

Phospho MEK = assay: Western blotting; format: cell-based; details: HCT-116 and MCF-7 cells, 48 h, increasing concentration
Protocol: as §3

ERK = assay: Western blotting; format: cell-based; details: HCT-116 and MCF-7 cells, 48 h
Protocol: as §3

HT-29 [5] = assay: Scratch assay (migration); format: cell-based; details: HT-29, concentrations within the range of IC50
Protocol: (§4) Scratch assay was performed in the panel of cancer cell lines with varying degree of invasive and migratory capabilities as shown in FIG. 4. Our results unveiled that setomimycin inhibited the migratory potential of all the cell lines treated with different concentration of setomimycin within the range of their IC50 values. […] 5×10^5 cells were seeded onto 6 well plate and grown upto more than 90% confluency. After the proper attachment of cells wounds were created with the help of a 20-200 μL sterile pipette tip. Subsequently the cells were treated with indicated concentration of setomimycin and vehicle (DMSO). The images were taken under inverted microscope at 20× magnification.

MCF-7 [6] = assay: Scratch assay (migration); format: cell-based; details: MCF-7, concentrations within the range of IC50
Protocol: as §4

HCT-116 [7] = assay: Scratch assay (migration); format: cell-based; details: HCT-116, concentrations within the range of IC50
Protocol: as §4

MCF-7 [8] = assay: Transwell invasion assay; format: cell-based; details: MCF-7, 48 hours, increasing concentration
Protocol: (§5) The above results depict significant antiproliferative effects of setomimycin in different cell lines near IC50 values. Transwell invasion assay was performed to check the anti-invasive properties of setomimycin. […] (A-B) 1.2×10^6 HCT-116 and MCF-7 cells were seeded in the upper chamber of inserts in serum free medium and treated with indicated concentration of setomimycin for 48 hours. (After 48 hours the invaded cells from lower insert were fixed with ice cold methanol and stained with 0.1% crystal violet for 20-30 minutes. After staining the inserts were washed with dH2O thoroughly and cells from three different fields in each treated condition were counted and photographed under an inverted microscope (20× magnifications). (C-D) Bar graph representing the number of invaded cells (n=3, error bars indicate ±SD).

HCT-116 [9] = assay: Transwell invasion assay; format: cell-based; details: HCT-116, 48 hours, increasing concentration
Protocol: as §5

[10] = test system: Gram positive bacteria i.e. S. aureus, B. subtilis, B. cereus, and M. smegmatis; details: literature 1978; cited from earlier work
MiaPaca-2 [11] = assay: Colony formation assay; format: cell-based, human; details: MiaPaca-2, concentrations nearby the IC50, 5 days
Protocol: (§6) Colony formation assay was performed to further certify the antiproliferative properties of setomimycin in four different cancer cell lines viz. HT-29, MiaPaca-2, HCT-116 and MCF-7. Cells were seeded onto 6 well plates at seeding density 1×10^3 fells/well and treated with increasing concentration of setomimycin nearby the IC50 values for 5 days. Upon termination the cells were stained with 0.1% crystal violet for 20-30 minutes and washed with dH2O thoroughly. The images were taken from plates with NIKON camera (D3100). Average colonies (n=3) were quantified from different fields. Bar graphs represent the number of colonies (n=3, error bars indicate ±SD).

HT-29 [12] = assay: Colony formation assay; format: cell-based; details: HT-29, concentrations nearby the IC50, 5 days
Protocol: as §6

MCF-7 [13] = assay: Colony formation assay; format: cell-based; details: MCF-7, concentrations nearby the IC50, 5 days
Protocol: as §6

HCT-116 [14] = assay: Colony formation assay; format: cell-based; details: HCT-116, concentrations nearby the IC50, 5 days
Protocol: as §6

Sarcoma-180 = Sarcoma-180 mouse solid tumor model, 200 mg/kg per day for seven days; cited from earlier work
MiaPaca-2 [15] = assay: Scratch assay (migration); format: cell-based, human; details: MiaPaca-2, concentrations within the range of IC50
Protocol: as §4

Compound	Minimum Inhibitory Concentration (Staphylococcus aureus)	Minimum Inhibitory Concentration (Bacillus subtilis)	Minimum Inhibitory Concentration (Bacillus cereus)	Minimum Inhibitory Concentration (Micrococcus luteus)	IC50 (HT-29 [1]) [µM]	IC50 (PC3) [µM]	IC50 (MDA-MB-231) [µM]	IC50 (MCF-7 [2]) [µM]	IC50 (Panc-1) [µM]	IC50 at 48 h (MTT cytotoxicity) [µM]	IC50 (MiaPaca-2 [3]) [µM]	IC50 (A549) [µM]	IC50 (HCT-116 [4]) [µM]	further results
CC(=O)[C@H]1c2cc3cccc(O)c3c(O)c2C(=O)C[C@]1(C)O [Compound-1]	25	12	12	6	8.64	14.7	13.6	9.56	15.6	48.7	12.7	38.9	10.4	–
CC(=O)[C@H]1c2c(c(O)c3c(O)cccc3c2-c2c3c(c(O)c4c(O)cccc24)C(=O)C[C@](C)(O)[C@H]3C(C)=O)C(=O)C[C@]1(C)O [Compound-2]	12	6	6	4	15.5	17.5	12.5	11.2	21.3	62.3	8.31	38.7	18.9	–
CC(=O)[C@@H]1C(C)=CC(=O)c2c1c(-c1c3c(c(O)c4c(O)cccc14)C(=O)C[C@](C)(O)[C@H]3C(C)=O)c1cccc(O)c1c2O [Compound-3, Setomimycin]	8	16	4	8	4.2	7.02	7.5	6.9	48	53.3	4.57	11.5	5.3	BCL-2 (antiapoptotic protein) expression, Western blot (BCL-2): downregulated; Par-4 (pro-apoptotic protein) expression, Western blot (Par-4): upregulated; Phospho MEK expression, Western blot (Phospho MEK): down regulated; ERK protein expression, Western blot (ERK): downregulation; Cell migration, scratch assay (HT-29 [5]): inhibited the cell migration; Cell migration, scratch assay (MCF-7 [6]): inhibited the cell migration; Cell migration, scratch assay (HCT-116 [7]): inhibited the cell migration; Invasion of cells, transwell (MCF-7 [8]): significantly inhibited; Invasion of cells, transwell (HCT-116 [9]): significantly inhibited; Activity against Gram positive bacteria [10]: active; Antiproliferative effect, colony formation (MiaPaca-2 [11]): promising results near the IC50 values; Antiproliferative effect, colony formation (HT-29 [12]): promising results near the IC50 values; Antiproliferative effect, colony formation (MCF-7 [13]): promising results near the IC50 values; Antiproliferative effect, colony formation (HCT-116 [14]): promising results near the IC50 values; Tumor growth (Sarcoma-180): reduce tumor growth; Cell migration, scratch assay (MiaPaca-2 [15]): inhibited the cell migration
